The text below walks through data of patent US12648892B2, “Emergency eye wash” (Lebrun Labs LLC, priority 2024, dated 2026).

One data set deals with cornea. Conditions: cited from earlier work.
Data set [1] has as its system corneal stromal cell (keratocytes) nuclei. In words: NaOCl titration study, TUNEL positive nuclei counts. In kind it is cell-based. Conditions: New Zealand White, rabbit, 1 min, 8 %. The protocol:
(§1) Whole New Zealand White rabbit eyes were used Prior to exposure a 10-mm internal dosing ring (FIG. 12A, part of the IVD kit) was placed over the central cornea that was then exposed to NaOCl.
Prior to each experiment (<1 h), NaOCl (CASRN 7681-52-9, Sigma-Aldrich, St. Louis, MO) was freshly diluted in sterile deionized water, mixed by five tube inversions prior to each application, and applied directly to the eyes (corneas) by transferring 100 μL with a micropipette into the dosing ring (FIG. 12A); the corneas were then exposed to this solution for exactly 1 min. […] The pH of the 32% NaOCl was measured using a Fisherbrand™ Accumet™ AB150 pH benchtop meter (Fisher Scientific, Waltham, MA). […]
Stained sections were viewed using a Leica DMRE fluorescence microscope (Leica Microsystems Inc., Buffalo Grove, IL). […] An L5 Fluorescence Filter Cube (Leica Microsystems Inc., Buffalo Grove, IL) was used for TUNEL and DoD imaging. Images were processed and analyzed using ImageJ software, version 1.54 (Schneider et al., 2012). […] Three corneal cryosections, each approximately 2.3 mm long and 0.5-0.9 mm wide (depending on swelling), were measured for each eye. To count TUNEL-positive nuclei, the number of discrete TUNEL-positive nuclei in the stroma that meet the size parameters associated with a keratocyte nucleus were recorded for each section using ImageJ software. […]

Data set [2] in a line: pH measurement of solutions. In kind it is physicochemical. Conditions: 32% NaOCl. The protocol:
In another study, how quickly washing must be initiated was studied. AA wash was formulated as described above and used just after injury, 10 minutes after injury or 2 hours after injury. […] However this solution took 3.5 hours of rapid mixing to fully go into solution and the another 1.5 hours to adjust the pH which initially feel below to a pH of 3.25.
(§2) Prior to each experiment (<1 h), NaOCl (CASRN 7681-52-9, Sigma-Aldrich, St. Louis, MO) was freshly diluted in sterile deionized water, mixed by five tube inversions prior to each application, and applied directly to the eyes (corneas) by transferring 100 μL with a micropipette into the dosing ring (FIG. 12A); the corneas were then exposed to this solution for exactly 1 min. Immediately after exposure, corneas were rinsed for exactly 30 s by forcefully dispensing 20 mL saline (9 g/L NaCl) from an eye rinsing syringe (part of the IVD kit). The pH of the 32% NaOCl was measured using a Fisherbrand™ Accumet™ AB150 pH benchtop meter (Fisher Scientific, Waltham, MA).

Data set [3] relates to corneal stromal cell (keratocytes) nuclei. In words: Wash bottle study (500-mL bottle, active wash): TUNEL counts and depth of damage (DoD). Format: cell-based. Conditions: eyes exposed to 32% sodium hypochlorite, then actively washed 15 min with 500 mL. The protocol:
as §1, §2
A 100-ml beaker or 500-mL emergency eye wash bottle (FIG. 12B) was used to prepare the AA solution and wash the eyes (Lebrun and Nguyen, 2024). These containers hold a ready-to-use eye wash buffer (EWB) solution composed of potassium chloride (CASRN 7447-40-7, 2.7 mM; Fisher Scientific), potassium phosphate monobasic (CASRN 7778-77-0, 1.5 mM; Fisher Scientific), sodium chloride (CASRN 7647-14-5, 137.9 mM; Fisher Scientific), sodium phosphate dibasic (CASRN 7782-85-6, 8.1 mM; Sigma Aldrich), deionized water (ReadyRefresh, Stamford, CT), 1% dextran (CASRN 9004-54-0; Sigma Aldrich), and 1% bovine serum albumin (CASRN 9048-46-8; Sigma Aldrich). Before use, different amounts of powdered AA (CASRN 50-81-7; Sigma Aldrich) are dispersed into the liquid component and rapidly mixed to achieve a predefined concentration (Lebrun et al., 2021c, 2021d, 2021e) to form complete EWB+AA. […] The pH of the liquid portion of the wash solution is adjusted to 7.2 with HCl to ensure that the final wash solution for the 0.2% powdered AA reaches a pH of 6.99±0.5. For the 10% AA condition, the pH was further adjusted to 6.99±0.5 with 1 N NaOH. For the EWB only condition, the pH was adjusted to 6.99±0.5 with 1 N HCl. For the wash step, eyes were either passively soaked in beakers (100-mL conditions) or washed with an eyewash bottle (500-mL conditions) for the indicated times. The eyewash bottle allows for forceful spraying and recycling of the 500-mL solution (Lebrun and Nguyen, 2024). While this bottle can be used in vivo or in vitro, for the in vitro study described here, the eyes were placed cornea-side down in the well at the top of the bottle, and the bottles were compressed so that a jet of solution washed over the eye (see FIG. 12B).
The corneas of whole eyes were exposed to either 100 μL of 32% NaOCl for 1 min or 100 μL deionized sterile water for 1 min (control condition) in a dosing ring. Eyes were then rinsed, and all eyes were washed using 500-mL wash bottles (FIG. 12B). Washing was with sterile tap water (municipal water, Anaheim, CA, 0.22-micron pore size filtered), EWB, or EWB+0.2% AA. After “washing,” eyes were processed following the “postexposure” steps described below.
After washing, eyes were placed in fresh postexposure wells (part of the IVD kit) containing approximately 1.5 mL OM added to the level of the limbus. Eyes were then placed back into a humidified, 5% CO2, 37° C. incubator for 24 h. Corneas were then removed by dissection, placed in 4% paraformaldehyde in phosphate-buffered saline (fixative; Boston BioProducts, Inc., Milford, MA), and stored at 4° C.
After a minimum of 24 h in fixative, corneas were cut in half and infiltrated with 30% sucrose (Capella et al., 1965), and the tissues were then embedded in Tissue-Tek® O.C.T. compound (Sakura Finetek, Torrance, CA), snap frozen in liquid nitrogen, and stored in an ultralow freezer (−80° C., New Brunswick Scientific, Hamburg, Germany). […]

Values joined by “and” are separate entries in the source; they are usually repeats but may differ in a detail not shown here. Identical values can stand only once. “Also recorded” adds a separate entry of the source. Like-named read-outs stand apart in the source and are kept apart here.

Turning to `O=C1O[C@H]([C@@H](O)CO)C(O)=C1O` [AA, ascorbic acid], the “effect on corneal ulceration” value with cornea (subcutaneous injection of 15% AA solution within 3 h of the burn, once daily) was “ineffective; also recorded: not effective”; in the data set on cornea (topical 10% AA eye drop pH 7.2, 2 h after the burn and hourly for 14 h per day) it was “reduced corneal ulceration”.
Take `OCl` [NaOCl, sodium hypochlorite]: the “TUNEL positive nuclei count, AVG ± SE (overall average)” value (shortened to “TUNEL positive nuclei count, AVG ± SE”) in data set [1] is 3.1 ± 3.1. Moreover, the pH in data set [2] is 12.04 and 12.
For Water, in data set [3], the “Depth of Damage (DoD), AVG ± SE (overall average)” value is listed as 59.6 ± 3.6%; the “Depth of Damage (DoD), S. AVG ± SE (section average per eye)” value was 44.2 ± 2.8% and 68.5 ± 0.5% and 60.9 ± 0.7%; the “TUNEL positive nuclei count, AVG ± SE” value is recorded as 254.9 ± 17.8; the “TUNEL positive nuclei count, S. AVG ± SE (section average per eye)” value was 231.0 ± 4.0 and 238.0 ± 2.6 and 287.7 ± 4.1. In addition, the “TUNEL positive nuclei count, AVG ± SE” value in data set [3] (listed as tap water) is given as 254.9±17.8. Moreover, in data set [3] (listed as water), the “Depth of Damage (DoD), AVG ± SE (overall average)” value came out at 59.6±3.6%; the “Depth of Damage (DoD), S. AVG ± SE (section average per eye)” value is 44.2±2.8% and 68.5±0.5% and 60.9±0.7%; the “TUNEL positive nuclei count, AVG ± SE” value was determined as 254.9±17.8; the “TUNEL positive nuclei count, S. AVG ± SE (section average per eye)” value was 231.0±4.0 and 238.0±2.6 and 287.7±4.1. In data set [3] (per eye), the “Depth of Damage (DoD), Section A” value is 47.0% and 68.4% and 62.3%; the “Depth of Damage (DoD), Section B” value is 41.4% and 69.4% and 59.8%; the “TUNEL positive nuclei count, Section A” value is 227.0 and 234.0 and 289.0; the “TUNEL positive nuclei count, Section B” value was 235.0 and 243.0 and 280.0. For the same compound, in data set [3] (per eye, listed as water), the “Depth of Damage (DoD), Section A” value is 47.0% and 68.4% and 62.3%; the “Depth of Damage (DoD), Section B” value is 41.4% and 69.4% and 59.8%; the “Depth of Damage (DoD), Section C” value was 67.6% and 60.7%; the “TUNEL positive nuclei count, Section A” value was 227.0 and 234.0 and 289.0. Further, in data set [3] (per eye, listed as water), the “TUNEL positive nuclei count, Section B” value is 235.0 and 243.0 and 280.0; the “TUNEL positive nuclei count, Section C” value was 237.0 and 294.0.
